Columns and labels:
[1] = system: Methicillin Resistant Staphylococcus aureus; assay: Minimum inhibitory concentration (MIC) test; format: cell-based; details: mupirocin combined with micronized poloxamer composition 202 (poloxamer 188 and poloxamer 407)
Procedure: (§1) “Minimum Inhibitory Concentration (MIC)” may refer to the lowest concentration of an antimicrobial that may inhibit the visible growth of a microorganism after overnight incubation.
(§2) Moreover, micronized poloxamer composition 202 may enhance mupirocin's properties by lowering the minimum inhibitory concentration (MIC) to about […]. The MIC was tested against microorganisms such as Pseudomonas aeruginosa, and Methicillin Resistant Staphylococcus aureus, among others.

[2] = system: Pseudomonas aeruginosa; assay: Minimum inhibitory concentration (MIC) test; format: cell-based; details: mupirocin combined with micronized poloxamer composition 202 (poloxamer 188 and poloxamer 407)
Procedure: as §1, §2

minimum inhibitory concentration (MIC) [1]: about 1.7 g
minimum inhibitory concentration (MIC) [2]: about 1.7 g
Compound: C/C(=C\C(=O)OCCCCCCCCC(=O)O)C[C@@H]1OC[C@H](C[C@@H]2O[C@H]2[C@@H](C)[C@H](C)O)[C@@H](O)[C@H]1O [mupirocin]

Source: patent US20140371305A1, “Mupirocin Antibiotic Composition” (PROFESSIONAL COMPOUNDING CENTERS OF AMERICA, priority 2013, published 2014)
